Results: patent US20090068059A1, “METHOD OF PREVENTING HYDROGEN SULFIDE ODOR GENERATION IN AN AQUEOUS MEDIUM” (priority 2007, published 2009)
Several values for one entry are separate records, joined by “and”; a condition that tells them apart may be missing. Equal values may be shown once. Where a name gives a salt, the structure may show the parent alone.

System: sulfate reducing bacteria (SRB)
Assay: Serum bottle test: control of H2S generation and sulfate reducing bacteria in synthetic nutrient medium
Assay type: cell-based
Description: The test protocol was as follows: 100 mL serum bottles were filled with synthetic nutrient medium, then stoppered, capped, and autoclaved, and allowed to cool to at least 35 ° C. Using a 1 mL syringe with needle, the treatment was added at desired dosages to prepared serum bottles (triplicates of each dosage). No treatment was added for baseline controls. At least 6 baseline serum bottles were used. Using a 1 mL syringe with needle, 0.1 mL of prepared culture was added to each serum bottle. Next, a 10^10 cells/ml concentration of the sulfate reducers was prepared (using autoclaved synthetic nutrient medium) inside an anaerobic chamber. Using a 1 ml syringe with needle, 0.1 ml of the prepared sulfate reducers culture was added to each serum bottle. The bottles were then incubated at the desired temperature. The baseline dissolved sulfide levels were then measured to determine if the samples were ready for efficacy analysis. Using a 30 mL syringe with needle, 30 mL of sample was removed from each serum bottle. About 25 mL of the sample was added to a 30 mL bottle containing 0.125 mL zinc acetate solution, followed by adding 1 mL of 1N NaOH. The sulfide in the fixed sample was then measured. The remaining 5 mL of sample in the syringe was used for pH determination.

[1] = H2S generation, inhibitor concentration 1 ppm
[2] = H2S generation, inhibitor concentration 2.5 ppm
[3] = H2S generation, inhibitor concentration 5 ppm
[4] = inhibitor concentration 2.5 ppm
[5] = inhibitor concentration 100 ppm

With N=C(NCCCCCCNC(=N)NC(=N)Nc1ccc(Cl)cc1)NC(=N)Nc1ccc(Cl)cc1.O=C(O)[C@H](O)[C@@H](O)[C@H](O)[C@H](O)CO.O=C(O)[C@H](O)[C@@H](O)[C@H](O)[C@H](O)CO [Chlorhexidine digluconate] the “% Inhibition” value [1] was 100%, the “% Inhibition” value [2] was 100% and the “% Inhibition” value [3] was 100%. For the same compound, the “H2S concentration (ppm)” value (inhibitor concentration 1 ppm) was 0 ppm, the “H2S concentration (ppm)” value [4] was 0 ppm and the “H2S concentration (ppm)” value (inhibitor concentration 5 ppm) was 0 ppm. The “% H2S Inhibition” value (inhibitor concentration 25 ppm) was 99%, the “% H2S Inhibition” value (inhibitor concentration 50 ppm) was 99% and the “% H2S Inhibition” value [5] was 99% and 100%.
For [H]/N=C(\N/C(=N/[H])NCCCCCCNC(=N)NC(=N)Nc1ccc(Cl)cc1)Nc1ccc(Cl)cc1 [Chlorhexidine dihydrochloride], the inhibition at 1 ppm [1] was 96%, the “% Inhibition” value (H2S generation, inhibitor concentration 1 ppm, dihydrochloride) was 98% and 95% and the inhibition at 2.5 ppm [2] was 100%. The inhibition at 5 ppm [3] was 100%, the “H2S concentration (ppm)” value [4] was 0 ppm and the “H2S concentration (ppm)” value (inhibitor concentration 5 ppm) was 0 ppm. The inhibition at 25 ppm (inhibitor concentration 25 ppm) was 99%, the inhibition at 50 ppm (inhibitor concentration 50 ppm) was 99% and the inhibition at 100 ppm [5] was 100%.
